Results: US12630563B2, “Macrocyclic RIP2-kinase inhibitors” (Oncodesign S.A., priority 2020, dated 2026)
pIC50: −log10 of the molar value.

target: T1, recombinant hRIPK2 protein (kinase domain aa 1-299-His-tagged) (Homo sapiens, UniProt O43353); test: RIPK2 AlphaLISA assay (displacement of bead-bound CZC-8004 from hRIPK2); format: binding; settings: recombinant hRIPK2 kinase domain 10 nM, 2 h at 23° C.
T1 construct: kinase domain aa 1-299-His-tagged; purchased Life Technologies PR7829A
In short: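 His-tagged kinase domain (10 nM, as diluted) was mixed with compound (0.8% DMSO), acceptor beads bearing the probe CZC-8004 and Ni2+ donor beads. After 2 h at 23 °C, AlphaLISA signal was read. Loss of signal reflects displacement of the probe from RIPK2.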

T1 sequence (O43353 1-299): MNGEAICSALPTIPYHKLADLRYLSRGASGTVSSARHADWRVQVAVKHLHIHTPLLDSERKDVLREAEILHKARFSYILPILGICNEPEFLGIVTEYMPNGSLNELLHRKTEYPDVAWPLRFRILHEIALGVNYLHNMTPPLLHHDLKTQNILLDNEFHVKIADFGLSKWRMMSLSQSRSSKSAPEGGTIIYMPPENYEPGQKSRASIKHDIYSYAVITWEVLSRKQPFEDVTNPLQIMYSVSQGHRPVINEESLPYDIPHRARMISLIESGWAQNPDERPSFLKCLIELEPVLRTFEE

Row | Structure (SMILES) | pIC50
1 | CO[C@@H]1C[C@H]2COc3nc4c(cnn4cc3C)-c3cc(cc(OCC4CCOC4)c3)NCCN2C1=O (stereo partly drawn) [Example 50, (12R,14S)-12-methoxy-18-methyl-4-(oxolan-3-ylmethoxy)-16-oxa-7,10,20,21,24-pentaazapentacyclo[15.5.2.1^2,6.0^10,^14.0^20,^23]pentacosa-1(23),2,4,6(25),17(24),18,21-heptaen-11-one] | 7.00 to 8.00
2 | COCCO[C@@H]1C[C@H]2COc3nc4c(cnn4cc3OC(C)C)-c3cc(cc(OC)c3)NCCN2C1=O [Example 125, (12R,14S)-4-methoxy-12-(2-methoxyethoxy)-18-(propan-2-yloxy)-16-oxa-7,10,20,21,24-pentaazapentacyclo[15.5.2. 1^2,6.0^10,^14.0^20,^23]pentacosa-1(23),2,4,6(25),17(24),18,21-heptaen-11-one] | > 8.00
3 | COc1cc2cc(c1)-c1cnn3ccc(nc13)OC[C@@H]1C[C@@H](OC)C(=O)N1C(C)CN2 (stereo partly drawn) [Example 142, (12R,14S)-4,12-dimethoxy-9-methyl-16-oxa-7,10,20,21,24-pentaazapentacyclo[15.5.2.1^2,6.0^1°,^14.0^2°,^23]pentacosa-1(23),2(25),3,5,17(24),18,21-heptaen-11-one] | 7.00 to 8.00
4 | CC(C)O[C@@H]1C[C@H]2COc3ccn4ncc(c4n3)-c3cc(F)cc(c3)NCCN2C1=O [Example 9, (12R,14S)-4-fluoro-12-(propan-2-yloxy)-16-oxa-7,10,20,21,24-pentaazapentacyclo[15.5.2.1^2,6.0^10,^14.0^20,^23]pentacosa-1(23),2,4,6(25),17(24),18,21-heptaen-11-one] | > 8.00
5 | COCCO[C@@H]1C[C@H]2COc3nc4c(cnn4cc3OCC3(C)COC3)-c3cc(cc(OC)c3)NCCN2C1=O [Example 122] | > 8.00
6 | CCO[C@@H]1C[C@H]2COc3ccn4ncc(c4n3)-c3cc(F)cc(c3)NCCN2C1=O [Example 17, (12R,14S)-12-ethoxy-4-fluoro-16-oxa-7,10,20,21,24-pentaazapentacyclo[15.5.2.1^2,6.0^10,^14.0^20,^23]pentacosa-1(23),2,4,6(25),17(24),18,21-heptaen-11-one] | > 8.00
7 | COCCO[C@@H]1C[C@H]2COc3nc4c(cnn4cc3OC)-c3cc(cc(C(C)=O)c3)NCCN2C1=O [Example 99, (12R,14S)-4-acetyl-18-methoxy-12-(2-methoxyethoxy)-16-oxa-7,10,20,21,24-pentaazapentacyclo[15.5.2.1^2,6.0^10,^14.0^20,^23]pentacosa-1(23),2(25),3,5,17(24),18,21-heptaen-11-one] | > 8.00
8 | COCCO[C@@H]1C[C@H]2COc3nc4c(cnn4cc3OCCN(C)C)-c3cc(cc(OC)c3)NCCN2C1=O [Example 126, (12R,14S)-18-[2-(dimethylamino)ethoxy]-4-methoxy-12-(2-methoxyethoxy)-16-oxa-7,10,20,21,24-pentaazapentacyclo[15.5.2. 1^2,6.0^10,^14.0^20,^23]pentacosa-1(23),2,4,6(25),17(24),18,21-heptaen-11-one] | > 8.00
9 | CO[C@@H]1CC2(C)COc3ccn4ncc(c4n3)-c3cc(F)cc(c3)NCCN2C1=O (single isomer, unassigned) [Example 86] | > 8.00
10 | COCCc1cn2ncc3c2nc1OC[C@@H]1C[C@@H](OC)C(=O)N1CCNc1cc(F)cc-3c1 [Example 77, (12R,14S)-4-fluoro-12-methoxy-18-(2-methoxyethyl)-16-oxa-7,10,20,21,24-pentaazapentacyclo[15.5.2.1^2,6.0^1°,^14.0^2°,^23]pentacosa-1(23),2(25),3,5,17(24),18,21-heptaen-11-one] | > 8.00
11 | O=C1[C@H](OC2CC2)C[C@H]2COc3ccn4ncc(c4n3)-c3cc(cc(-n4cccn4)c3)NCCN12 [Example 81, (12R,14S)-12-cyclopropoxy-4-(1H-pyrazol-1-yl)-16-oxa-7,10,20,21,24-pentaazapentacyclo[15.5.2. 1^2,6.0^10,^14.0^20,^23]pentacosa-1(23),2(25),3,5,17(24),18,21-heptaen-11-one] | > 8.00
12 | CO[C@@H]1C[C@H]2COc3ccn4ncc(c4n3)-c3cc(cc(F)c3F)NCCN2C1=O [Example 15, (12R,14S)-3,4-difluoro-12-methoxy-16-oxa-7,10,20,21,24-pentaazapentacyclo[15.5.2.1^2,6.0^10,^14.0^20,^23]pentacosa-1(23),2,4,6(25),17(24),18,21-heptaen-11-one] | 7.00 to 8.00
13 | O=C1[C@H](OCC2COC2)C[C@H]2COc3ccn4ncc(c4n3)-c3cc(F)cc(c3)NCCN12 [Example 91, (12R,14S)-4-fluoro-12-(oxetan-3-ylmethoxy)-16-oxa-7,10,20,21,24-pentaazapentacyclo[15.5.2.1^2,6.0^1°,^14.0^2°,^23]pentacosa-1(23),2(25),3,5,17(24),18,21-heptaen-11-one] | > 8.00
14 | CO[C@@H]1C[C@H]2COc3nc4c(cnn4cc3C)-c3cc(cc(OCC4CC4)c3)NCCN2C1=O [Example 48, (12R,14S)-4-(cyclopropylmethoxy)-12-methoxy-18-methyl-16-oxa-7,10,20,21,24-pentaazapentacyclo[15.5.2.1^2,6.0^10,^14.0^20,^23]pentacosa-1(23),2,4,6(25),17(24),18,21-heptaen-11-one] | 4.96 to 7.00
15 | CO[C@@H]1CC2(C)COc3ccn4ncc(c4n3)-c3cc(F)cc(c3)NCCN2C1=O (single isomer, unassigned) [Example 85] | 4.96 to 7.00
16 | [2H]C([2H])([2H])C([2H])([2H])O[C@@H]1C[C@H]2COc3ccn4ncc(c4n3)-c3cc(cc(OC)c3)NCCN2C1=O [Example 110, (12R,14S)-12-(H5)ethoxy-4-methoxy-16-oxa-7,10,20,21,24-pentaazapentacyclo[15.5.2. 1^2,6.0^10,^14.0^20,^23]pentacosa-1(23),2,4,6(25),17(24),18,21-heptaen-11-one] | > 8.00
17 | COCCO[C@@H]1C[C@H]2COc3nc4c(cnn4cc3OC)-c3cc(cc(OC)c3)NCCN2C1=O (racemic) [Example 117, (12R,14S)-4,18-dimethoxy-12-(2-methoxyethoxy)-16-oxa-7,10,20,21,24-pentaazapentacyclo[15.5.2.1^2,6.0^10,^14.0^20,^23]pentacosa-1(23),2,4,6(25),17(24),18,21-heptaen-11-one] | > 8.00
18 | CCO[C@@H]1C[C@H]2COc3nc4c(cnn4cc3C)-c3cc(F)cc(c3)NCCN2C1=O [Example 18, (12R,14S)-12-ethoxy-4-fluoro-18-methyl-16-oxa-7,10,20,21,24-pentaazapentacyclo[15.5.2.1^2,6.0^10,^14.0^20,^23]pentacosa-1(23),2,4,6(25),17(24),18,21-heptaen-11-one] | > 8.00
19 | CO[C@@H]1C[C@H]2COc3ccn4ncc(c4n3)-c3cc(Cl)cc(c3)NCCN2C1=O [Example 4, (12R,14S)-4-chloro-12-methoxy-16-oxa-7,10,20,21,24-pentaazapentacyclo[15.5.2.1^2,6.0^10,^14.0^20,^23]pentacosa-1(23),2(25),3,5,17(24),18,21-heptaen-11-one] | > 8.00
20 | CO[C@@H]1C[C@H]2C(C)Oc3ccn4ncc(c4n3)-c3cc(F)cc(c3)NCCN2C1=O (relative stereo) [Example 103, E1-(12R,14S,15R*)-4-fluoro-12-methoxy-15-methyl-16-oxa-7,10,20,21,24-pentaazapentacyclo[15.5.2.1^2,6.0^10,^14.0^20,^23]pentacosa-1(23),2,4,6(25),17(24),18,21-heptaen-11-one] | 7.00 to 8.00
